Among the data in PubChem BioAssay (NCI) are TGI and GI50 values, retold here.

Some test systems named below: MDA-MB-231 breast; KM12 colon; SF-268 CNS; BT-549 breast; ACHN renal; SK-MEL-5 melanoma; OVCAR-5 ovarian; MALME-3M melanoma; NCI-H226 lung; 786-0 renal.
Holding throughout (test): NCI tumour cell line growth inhibition, 48 h

Where “and” joins values, the source holds several entries; their conditions need not be identical. Equal entries are not always repeated.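 Tested at 5 concentrations; 48 h exposure; 96-well plates; endpoints linearly interpolated, else capped at highest concentration. GI50 is the concentration that inhibits growth by half. The concentration for full growth arrest is given as TGI.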 Bounds are passed on as bounds.

For the compound `Cc1sc(Cc2ccccc2)nc1-c1ccc(N)cc1`, the TGI was 84.8 µM with MDA-MB-231 breast; 46.3 µM in the test on KM12 colon; greater than 100 µM in the test with SF-268 CNS; 83.4 µM in the test on BT-549 breast; greater than 100 µM with ACHN renal; 35.6 µM in the test on SK-MEL-5 melanoma. The TGI is greater than 100 µM in the test on OVCAR-5 ovarian and 90.2 µM in the test with MALME-3M melanoma.
For the compound `CCOC(=O)/C(Cl)=C(\C)Nc1nc2c(ccc3ccccc32)s1`, the TGI in the test with MDA-MB-231 breast, with KM12 colon, in the test with NCI-H226 lung, in the test on SF-268 CNS, in the test with BT-549 breast and with ACHN renal was greater than 100 µM each time. In addition, the TGI in the test with SK-MEL-5 melanoma, with OVCAR-5 ovarian and in the test with MALME-3M melanoma was greater than 100 µM in each case.
For the compound `O=c1oc2ccccc2c(Nc2ccc3c(c2)S(=O)(=O)c2ccccc2O3)c1[N+](=O)[O-]`, the TGI in the test on MDA-MB-231 breast was 67.9 µM; with KM12 colon, greater than 100 µM; in the test with NCI-H226 lung, 74.9 µM; in the test with SF-268 CNS it was greater than 100 µM; with BT-549 breast, 70.4 µM; in the test with ACHN renal, 70.2 µM. For the same compound, the TGI is 50.1 µM in the test with SK-MEL-5 melanoma, 58.4 µM in the test on 786-0 renal, greater than 100 µM with OVCAR-5 ovarian and 64.6 µM with MALME-3M melanoma.
In the case of `Cc1cc(NCc2cc(Nc3ccnc4cc(Cl)ccc34)ccc2F)nc(N2CCCC2)n1`, the GI50 in the test with KM12 colon was 1.97 µM; in the test with SK-MEL-5 melanoma, 1.76 µM. Further, the figures for the TGI with KM12 colon and in the test on SK-MEL-5 melanoma were 4.53 µM and 3.19 µM, respectively.
As for `NC(N)=N/N=C/c1c(-c2ccccc2)nc2n1ccc1nc(-c3ccccc3)c(/C=N/N=C(N)N)n12`, the TGI in the test with MDA-MB-231 breast, in the test with KM12 colon, in the test on NCI-H226 lung, in the test on SF-268 CNS, in the test on BT-549 breast and in the test with ACHN renal was greater than 100 µM in each case. Also, the TGI in the test on SK-MEL-5 melanoma is greater than 100 µM; with 786-0 renal it was greater than 100 µM; with OVCAR-5 ovarian, greater than 100 µM; in the test on MALME-3M melanoma, 84 µM.
For the compound `C[C@@H]1CC[C@H]2C(COCCOCC3=C(C(F)(F)F)O[C@@H]4O[C@@]5(C)CC[C@H]6[C@H](C)CC[C@@H]3[C@@]46OO5)=C(C(F)(F)F)O[C@@H]3O[C@@]4(C)CC[C@@H]1[C@]32OO4`, the GI50 is 1.97 µM in the test with MDA-MB-231 breast; 0.0305 µM in the test with KM12 colon; 0.102 µM with NCI-H226 lung; 0.0602 µM in the test with SF-268 CNS; 0.224 µM in the test on BT-549 breast; 0.0797 µM in the test with ACHN renal. In addition, the GI50 in the test with SK-MEL-5 melanoma was 0.176 µM; in the test on OVCAR-5 ovarian, greater than 4.64 µM; in the test on MALME-3M melanoma it was less than 0.01 µM. The TGI in the test with MDA-MB-231 breast was greater than 15.8 µM; with KM12 colon it was greater than 6.15 µM; in the test with NCI-H226 lung, greater than 100 µM; in the test on SF-268 CNS, greater than 100 µM; in the test with BT-549 breast, greater than 100 µM; in the test on ACHN renal, greater than 10.3 µM. Further, the TGI in the test with SK-MEL-5 melanoma is greater than 100 µM; with 786-0 renal, greater than 100 µM; in the test on OVCAR-5 ovarian, greater than 20 µM; with MALME-3M melanoma, 9.26 µM.
Take `CC1=NN(c2ccccc2)C(=O)/C1=C/c1ccc(O)cc1`: the TGI with MDA-MB-231 breast, with KM12 colon, with NCI-H226 lung, in the test with SF-268 CNS, in the test with ACHN renal and in the test on SK-MEL-5 melanoma was greater than 100 µM each time. For the same compound, the TGI in the test on 786-0 renal, with OVCAR-5 ovarian and with MALME-3M melanoma was greater than 100 µM throughout.
In the case of `CC1=C2C(=O)c3ccccc3C(=O)[C@H]2[C@H]2CCO[C@H]2O1`, the TGI was 51.7 µM with MDA-MB-231 breast; 58.1 µM with KM12 colon; greater than 100 µM with NCI-H226 lung; 35.1 µM in the test with SF-268 CNS; 28.2 µM with BT-549 breast; 45.5 µM with ACHN renal. The TGI in the test with SK-MEL-5 melanoma worked out at 30.8 µM; with 786-0 renal it was 37.8 µM; with OVCAR-5 ovarian it was 49.2 µM; in the test on MALME-3M melanoma, 35.9 µM.
On to `COc1ccc(-c2c3c(nc4nc(SCCc5ccccc5)nc(N)c24)CCCC3)cc1OC`, for which the TGI with MDA-MB-231 breast, in the test on KM12 colon, in the test on SF-268 CNS, in the test with BT-549 breast, with ACHN renal and in the test on SK-MEL-5 melanoma was greater than 100 µM throughout. Also, the TGI in the test with OVCAR-5 ovarian and in the test on MALME-3M melanoma was greater than 100 µM throughout.
In the case of `O=S(=O)(Sc1ccc(Cl)cc1)c1ccc(Cl)cc1`, the TGI with KM12 colon is 32.5 µM; with NCI-H226 lung, 30.9 µM; in the test with SF-268 CNS, 21.3 µM; in the test on ACHN renal it was 31.2 µM; in the test with SK-MEL-5 melanoma, 28.6 µM; in the test with 786-0 renal it was 29.5 µM. Besides, the results for the TGI in the test with OVCAR-5 ovarian and with MALME-3M melanoma were 37.9 µM and 48.9 µM, respectively.
As to `CN1CCCCC1CCN1CCCCC1` (configuration not stated), the TGI in the test on MDA-MB-231 breast, in the test with KM12 colon, with NCI-H226 lung, in the test with SF-268 CNS, in the test on BT-549 breast and in the test with ACHN renal was greater than 100 µM in each case. The TGI with SK-MEL-5 melanoma, with 786-0 renal, in the test on OVCAR-5 ovarian and in the test with MALME-3M melanoma was greater than 100 µM each time.
Take `CCCCCCNC(=O)c1cnc(Cl)cn1`: the TGI with MDA-MB-231 breast is 32.4 µM; in the test on KM12 colon, 29.3 µM; with NCI-H226 lung it was 21.7 µM; in the test on SF-268 CNS, 31.4 µM; in the test with BT-549 breast, 82.4 µM; in the test on ACHN renal, 8.49 µM. Besides, the TGI in the test with SK-MEL-5 melanoma was 30.4 µM; in the test on 786-0 renal, greater than 100 µM; with OVCAR-5 ovarian it was 32.5 µM; in the test with MALME-3M melanoma, 31.1 µM.
Regarding `Cc1c2cc[n+](CCN3CCCCC3)cc2c(C)c2c1[nH]c1ccc(O)cc12`, the TGI with MDA-MB-231 breast is 34.7 µM; in the test on KM12 colon it was 27.9 µM and 14.1 µM; with NCI-H226 lung, 55.1 µM and 32.7 µM; in the test with SF-268 CNS, 29.6 µM and 25.7 µM; in the test on BT-549 breast, 28.7 µM; with ACHN renal, 22.9 µM. For the same compound, the TGI was 31.2 µM and 11.1 µM in the test with SK-MEL-5 melanoma; 21.6 µM with 786-0 renal; 62.4 µM and > 77.3 µM in the test with OVCAR-5 ovarian; 25.9 µM and 19.2 µM in the test on MALME-3M melanoma. Further, the GI50 was 3.14 µM with KM12 colon; 1.47 µM and 3.75 µM in the test with NCI-H226 lung; 2.29 µM in the test on SF-268 CNS; 25.2 µM in the test with OVCAR-5 ovarian; 3.17 µM in the test with MALME-3M melanoma.
As for `CN(C)CCCNc1ccc2ncn3c4ccccc4c(=O)c1c23`, the TGI in the test with KM12 colon is 20.3 µM; with NCI-H226 lung, 25.9 µM; in the test on SF-268 CNS it was 40.4 µM; in the test on ACHN renal, 52.5 µM; in the test on 786-0 renal, 33.2 µM; in the test with OVCAR-5 ovarian, 38.5 µM. The TGI in the test on MALME-3M melanoma is 49.2 µM.
